Test results taken from US8686178B2, “Derivative of 18β-glycyrrhetinic acid apt to suppress cancer cells” (Kaohsiung Medical University, priority 2011, dated 2014).

Assays:
[1] = system: human bladder cancer cell line NTUB1; test: Trial (A): cytotoxic effect, IC50 by median-effect analysis; assay type: cell-based; conditions: NTUB1 cells; for cytotoxic effect against cancer cell: with reference to TABLE 2; for IC50: mean ± SD
Excerpt: (§1) For the sake of proving therapeutic effects of the derivatives of 18β-glycyrrhetinic acid of the present invention, including 10, 11, 13-17 and 21-25, in treating of cancer, human bladder cancer cell line NTUB1, human prostate cancer cell line PC3 cataloged as CRL-1435 (reference to J. Formosan Med. Assoc. 1992; 91:608-13), and immortalized normal human urothelial cells SV-HUC1 cataloged as CRL-9520 are purchased from American Type Culture Collection (ATCC; Rockville, USA) and maintained in a culturing medium respectively till at a preferable density to carry out a serial of trials (comprising trial A to G) for evaluating cytotoxicities of the derivatives of 18β-glycyrrhetinic acid against cancer cells, and mechanisms thereof.
In the present invention, the NTUB1 and the PC3 is but not limit to be maintained in RPMI 1640 medium supplemented 10% fetal bovine serum (FBS), 100 unit/mL penicillin-G, 100 μg/mL streptomycin, and 2 mM L-glutamine, yet the SV-HUC1 is maintained in F12 medium supplemented with 10% fetal bovine serum (FBS), 100 unit/mL penicillin-G, 100 μg/mL streptomycin, and 2 mM L-glutamine, culturing at 37° C. in a humidified atmosphere containing 5% CO2 till at a density of 70% per well, followed by repeatedly suspending cells in each well with an ethylene diamine tetra-acetic acid buffer (EDTA buffer; Merck) and counting cell numbers.
In the present invention, the IC50 values of each group are presented as mean±standard deviation (SD).

NTUB1 = test: Trial (B): MTT cytotoxicity assay, 72 hours; assay type: cell-based, human; conditions: 0-50 μM
Excerpt: as §1, with “thereof. […]” for “thereof.”
(§2) In trial (B), the cell lines of NTUB1, PC3, and SV-HUC1 are prepared in 96-well plates and co-incubated with the compounds 21, 23 or 25 in various concentrations of 0, 0.3, 1, 3, 5, 10, 30 and 50 μM, to analyze cytotoxic effects against either cancer cell or normal cells via a modified 3-[4,5-dimethylthiazol-2-yl]-2,5-diphenyltetrazolium bromide (MTT, Sigma Chemical Co.) assay. […] At co-incubation, 50 μL of MTT (2 mg/mL in PB) is added to each well to react for 3 hours, followed by centrifugating the 96-well plates at 1000 g for 10 min to remove supernatant, adding 150 μL DMSO in each well of the 96-well plates, and determining viability rates of the NTUB1, PC3, and SV-HUC1 cells separately by an absorbance spectrometry at 540 nm with a MRX (DYNEXCO) microplate reader.

[2] = system: human prostate cancer cell line PC3; test: Trial (B): MTT cytotoxicity assay, 72 hours; assay type: cell-based; conditions: 0-50 μM
Excerpt: as §1, with “thereof. […]” for “thereof.”
as §2

[3] = system: immortalized normal human urothelial cells SV-HUC1; test: Trial (B): MTT assay on normal cells, 72 hours; assay type: cell-based; conditions: 0-50 μM
Excerpt: as §1, with “thereof. […]” for “thereof.”
as §2

NTUB1 cells [4] = test: Trial (D): production of reactive oxygen species by flow cytometry (DCF); assay type: cell-based, human; conditions: 24 hours
Protocol: In trial (D), production of reactive oxygen species (ROS) is analyzed by flow cytometry, since the levels of ROS play an important role in apoptosis.
Referring to TABLE 4, the NTUB1 cells at a density of 8×10^5 cells/ml are prepared and assigned into 5 groups, including D1 to D5, to incubate in various medium for 24 hours. Next, 10 μM of 2,7-dichlorodihydrofluorescein diacetate (H2DCFHDA; Molecular Probes, Eugene, Oreg.) is added to the NTUB1 cells of each group 30 minutes prior than harvest, followed by collecting the NTUB1 cells of each group respectively and washing with PBS buffer. With such arrangement, the 2,7-dichlorodihydrofluorescein diacetate will penetrate into cells, interact with esterase, and degrade to 2,7-dichlorofluorescein (DCF) having green fluorescein, which can be determined by flow cytometer. In trial (D), green fluorescence of intracellular DCF in each group are analyzed immediately by FACScan flow cytometer (Becton Dickinson) at a wavelength of 525 nm.

NTUB1 cells [5] = test: Trial (E): cell cycle progression by flow cytometry (propidium iodide); assay type: cell-based, human; design: Sub-G1 / G1: unit not given here; conditions: 24 hours, NTUB1
Protocol: In order to determine a relationship between the derivatives of 18β-glycyrrhetinic acid of the present invention and cell cycle arrest, trial (E) is carried out by analyzing cell cycle progression by flow cytometry. […] After that, cell cycle progression of each group is determined respectively by incubating with 50 μg/mL propidium iodide (Sigma, Co) and 50 μg/mL RNase A (Sigma, Co) in PBS at room temperature for 30 min, and analyzing by FACScan flow cytometer and Cell Quest sofeware.

p-p53 (Ser15) = test: Trial (G): expression of p53 / p-p53 by Western blot; assay type: cell-based, human; conditions: NAC with 50 μM 25, 24 hours, NTUB1
Protocol: In trial (G), expression of p53 is monitored via Western blot analysis in accordance with a journal article published by Son et al., at 2010 in Toxicol. Appl. Pharmacol., in which overproduction ROS induced p53 suppression is observed.
Referring to TABLE 7, the NTUB1 cells at a density of 8×10^5 cells/ml are prepared and assigned into 9 groups, including G1-1 to G1-5 and G2-1 to G2-4, to incubate in various medium for 24 hours, followed by harvesting in trypsinization, resuspending in PBS till at a suitable density and collecting the NTUB1 cells of each group respectively.
Next, the NTUB1 cells of each group are further diluted with equal volume of 2× sample buffer, boiled for 10 minutes twice to denature protein therein, and analyzed by SDS-PAGE. After that, proteins on SDS-PAGE datum are transferred to nitrocellulose membranes (Millipore, Billerica, Mass., USA) using a semi-dry blotter, followed by blocking with 5% (w/v) skimmed milk in TBST buffer (100 mM Tris-HCl (pH 7.5), 150 mM NaCl and 0.1% Tween-20), incubating with specific antibodies [including antibodies specific for b-acctin (NB600-501), p-p53 (Ser15) (9284) and p53 (DO1)]. at 4° C. overnight, washing with TBST buffer again and incubated with secondary antibody at room temperature. Finally, western data of each group are visualized on Fuji SuperRX film. […]

Question: `C=C(C)[C@@H]1CC[C@]2(C)[C@H](C(=O)C=C3[C@@H]4C[C@@](C)(C(=O)NC(C)C)CC[C@]4(C)CC[C@]32C)[C@@]1(C)CCC(=O)OCC` [Compound 21, 30-isopropyl carbamoyl-11-oxo-18β-3,4-seco-olean-4(23),12-dien 3-ethyl ester] was tested. Which “cytotoxic effect against cancer cell” value [1] did it give?
Answer: Its value is “significantly suppress the growth of cancer cells with a lower concentrate”.

Question: What about the IC50 [1] of the same molecule?
Answer: Its IC50 is 19.4 ± 19.2 µM.

Question: What about the “cytotoxic effect (survival ratio, FIGS. 4-6)” value (NTUB1) of the same molecule?
Answer: The value was “cytotoxic effects against to the cancer cells in a dose-dependent manner, particularly in against to NTUB1 cell”.

Question: And the “cytotoxic effect (survival ratio, FIGS. 4-6)” value [2]?
Answer: Its value is “cytotoxic effects against to the cancer cells in a dose-dependent manner”.

Question: And the “effect on growth of normal cells (survival ratio, FIGS. 4-6)” value [3]?
Answer: Its value is “enhance the growth of SV-HUC1 cells”.

Question: For `CC(=O)N[C@@H](CS)C(=O)O` [NAC, reference compound], which “ROS (%)” value (NTUB1 cells [4]; 1 mM) is on record?
Answer: Its value is 26.1%.

Question: And the G1 (NTUB1 cells [5]; 1 mM)?
Answer: Its G1 is 44.41.

Question: What about the S (NTUB1 cells [5]; 1 mM) of the same molecule?
Answer: The S was 29.18.

Question: What about the Sub-G1 (NTUB1 cells [5]; 1 mM) of the same molecule?
Answer: Its Sub-G1 is 2.66.

Question: What about the G2/M (NTUB1 cells [5]) of the same molecule?
Answer: Its G2/M is 20.18.

Question: What about the “effect on p53 phosphorylation stimulated by 25 (Western blot, FIG. 10)” value (p-p53 (Ser15)) of the same molecule?
Answer: The value was “prevents p53 phosphorylation that stimulated by 25”.

Question: With `C=C(C)[C@@H]1CC[C@]2(C)[C@H](C(=O)C=C3[C@@H]4C[C@@](C)(C(=O)NC(C)C)CC[C@]4(C)CC[C@]32C)[C@@]1(C)CCC(=O)NCC` [Compound 23] as the molecule, how does the “cytotoxic effect against cancer cell” value [1] read?
Answer: Its value is “significantly suppress the growth of cancer cells with a lower concentrate”.

Question: What about the IC50 [1] of the same molecule?
Answer: The IC50 was 12.8 ± 2.1 µM.

Question: And the “cytotoxic effect (survival ratio, FIGS. 4-6)” value (NTUB1)?
Answer: Its value is “cytotoxic effects against to the cancer cells in a dose-dependent manner, particularly in against to NTUB1 cell”.

Question: What about the “cytotoxic effect (survival ratio, FIGS. 4-6)” value [2] of the same molecule?
Answer: Its value is “cytotoxic effects against to the cancer cells in a dose-dependent manner”.

Question: And the “effect on growth of normal cells (survival ratio, FIGS. 4-6)” value [3]?
Answer: Its value is “enhance the growth of SV-HUC1 cells”.

Question: How did the IC50 [1] turn out when `N.N.[Cl][Pt][Cl]` [cisplatin, cis-diamminedichloroplatinum II, reference compound] was run?
Answer: Its IC50 is 3.27 ± 0.1 µM.

Question: And the “ROS (%)” value (NTUB1 cells [4]; 20 μM)?
Answer: Its value is 63.1%.

Question: And the G1 (NTUB1 cells [5]; 20 μM)?
Answer: Its G1 is 60.91.

Question: What about the G2/M (NTUB1 cells [5]; 20 μM) of the same molecule?
Answer: The G2/M was 6.65.

Question: And the S (NTUB1 cells [5]; 20 μM)?
Answer: The S was 22.09.

Question: What about the Sub-G1 (NTUB1 cells [5]; 20 μM) of the same molecule?
Answer: The Sub-G1 was 10.35.
